One test addresses T1, Mcl-1H205A (Homo sapiens, UniProt Q07820, H224A).
T1 construct: implied by Ni2+-NTA purification from pET-43.1a(+)); made in house; host or cells: E. coli BL21
In words: FPA competition assay, mutant Mcl-1 H205A. The test is classed as binding. The procedure:
(§1) 1 protein was induced by 0.6 mM IPTG for 20 h in the Flow cytometry condition of 20°C, 160 rpm. The strains were harvested by centrifugation (6000 rpm, 10 min, 4°C) and broken Tested cells (A2780, MCF-7 and SMMC-7721) by ultrasonication (10 s operation and 10 s stop, 5 min). were plated in 6-well plates (1×10^5 cells/well) and treated […]
(§2) All cells were detached by trypsin and washed manufacturer ’s instructions. The purified Mcl-1 was (three times) by precooled PBS. The resuspended cells analyzed by 15% SDS-PAGE and dialyzed against 10 mM were stained by Annexin V-FITC and PI in sequence PBS (pH 7.4) before being stored under −80°C for later use. before being detected by flow cytometry.
(§3) FPA competition assays The FITC labelled
(§4) BH3 peptide of Mcl-1 (FITC-Mcl-BH3, FITC-AHx-Western blot analysis […]
(§5) and used as fluorescence probe in the FPA competition A2780, MCF-7 and SMMC-7721 cells treated with assays. All assays were performed in the assay and without Comp8 were harvested, washed by precooled

In test [1] the test system is DLD-1 cells infected with Ad-PUMA. The test is described as follows: PUMA-dependent apoptosis of DLD-1 cells infected with Ad-PUMA (Caspase-Glo 3/7). The test is classed as cell-based. The following applies: Homo sapiens; DLD-1, Ad-PUMA, 48h; read-out: IC50 (inhibition of PUMA-dependent apoptosis). How it is done:
Tests of candidate compounds on blocking Synthesis of compound 8
PUMA-dependent apoptosis To a suspension of rhodanine (7.57 mmol) in dry Construction and validation of recombinant ethanol (10 mL), 4-Biphentlaldehyde (11.3 mmol), N-(2-Adenovirus By taking pHBAd-MCMV-GFP (Hanbio) as hydroxyethyl) piperazine (11.3 mmol), and glacial acetic vector, the construction and purification of Adenoviruses acid (0.75 mmol) were added and the resulting mixture overexpressing PUMA and PUMA-∆BH3 (PUMA was further stirred under reflux for 5-6 h. The reaction was without the BH3 domain) were performed according to completed and then cooled in an ice bath. The precipitated former reports. […]
various multiplicity of infection (MOI, 6 points, from 0 The crystal structure of Comp8 was solved by X-ray to 160) in 96-well, white, flat-bottom plates (Nunc). […] Shake gently and record the luminescence of each well on TECAN Infinite M1000 S.Y.Z., H.C., J.N.L and J.Y.L. conceived the project.
Microplate Spectrophotometer. The data were analyzed J.Y.L. and Z.T. designed the experiment. J.Y.L., Z.T., by Graphpad Prism and suitable MOI of Ad-PUMA for N.Z., X.Y.L. and C.Y.L. performed the experiments and following cell infection can be determined in this process. prepared the manuscript. […]
added to make the final compound concentrations range 2. […] The results were detected by flexible docking. […]

The next test addresses T2, Mcl-1D237A (Homo sapiens, UniProt Q07820, D256A).
T2 construct: implied by Ni2+-NTA purification from pET-43.1a(+)); made in house; host or cells: E. coli BL21
In words: FPA competition assay, mutant Mcl-1 D237A. The test is classed as binding. The procedure:
as §1, §2, §3, §4, §5

The target of a further test is T3, Mcl-1F251A (Homo sapiens, UniProt Q07820, F270A).
T3 construct: implied by Ni2+-NTA purification from pET-43.1a(+)); made in house; host or cells: E. coli BL21
T3 sequence (Q07820 172-327 F270A): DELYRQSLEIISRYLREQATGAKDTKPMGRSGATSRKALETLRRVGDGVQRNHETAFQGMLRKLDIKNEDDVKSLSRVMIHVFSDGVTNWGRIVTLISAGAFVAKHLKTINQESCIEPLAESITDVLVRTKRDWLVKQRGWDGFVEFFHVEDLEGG
The test is described as follows: FPA competition assay, mutant Mcl-1 F251A. The test is classed as binding. The procedure:
as §1, §2, §3, §4, §5

T1 sequence (Q07820 172-327 H224A): as the sequence (Q07820 172-327 F270A) above, with H53A, A99F counted along it
T2 sequence (Q07820 172-327 D256A): as the sequence (Q07820 172-327 F270A) above, with D85A, A99F counted along it

A word on the Ki: it is the dissociation constant of the complex between target and ligand, obtained from inhibition or displacement. In general, IC50 refers to the concentration needed to halve the response being measured. On to `O=C1N=C(N2CCN(CCO)CC2)S/C1=C\c1ccc(-c2ccccc2)cc1` [Comp8], for which the Ki at Mcl-1H205A came out at 1240 ± 350 nM; on Mcl-1D237A it was 1980 ± 310 nM; on Mcl-1F251A it was 660 ± 130 nM. The IC50 in test [1] was 38900 ± 910 nM.

For the origin of these results see PMC5589576, “Targeting the apoptotic Mcl-1-PUMA interface with a dual-acting compound” (Oncotarget, 2017).
